Format in all cases: cell-based, mouse
Test [1] deals with diploid beclin1^+/+ and beclin1^+/− iBMK cells. Nature of the test: Flow-cytometry analysis of DNA content (progression to aneuploidy) over passages without and with NAC. The conditions noted are these: NAC 1 mM. The source says: (§1) FIG. 5 illustrates effects of metabolic stress in promoting elevated ROS production and chromosomal instability in autophagy-deficient cells. (A) Autophagy-deficiency leads to elevated ROS production. Overlays show ROS levels in Bcl-2 expressing beclin1^+/+ (Green) and beclin1^+/− iBMK cells (Blue) (x-axis, log scale) under normal growth (0 Di) and at 0.5, 1, 2.5 and 24 hr (beclin1^+/+, green arrows and beclin1^+/−, red arrows) during recovery (0.5-24 hR) from 5 days of metabolic stress (5 Di) by flow-cytometry using the ROS sensor DCF-DA. The ROS levels in untreated cells are shown in dotted lines for comparison. […] Numbers represent passage numbers at which ploidy was determined.
To determine if the elevated ROS and oxidative stress in autophagy-deficient cells contributes to cellular damage, the stress response without and with the ROS scavenger, N-acetyl cysteine (NAC) was examined. […] To examine the role of increased ROS levels and oxidative stress on genomic instability, the DNA content of early passage diploid beclin1^+/+, and autophagy-deficient beclin1^+/− iBMK cells without and with NAC by flow-cytometry were monitored. beclin1^+/+ iBMK cells maintained diploidy after 40 passages and the presence of NAC had no effect. […]

The test system of test [2] is Bcl-2 expressing beclin1^+/+ and beclin1^+/− iBMK cells. The test is described as follows: Survival during metabolic stress and recovery without and with ROS scavenger (time-lapse images, adherent cells). Particulars: NAC 1 mM, 5 days of metabolic stress.
Source text: as §1, with “comparison. (B) Representative histogram from three independent experiments measuring the mean ROS levels in Bcl-2 expressing beclin1^+/+ and beclin1^+/− iBMK cells shown in (A). […] Representative time-lapse images of Bcl-2 expressing beclin1^+/+ and beclin1^+/− iBMK cells during recovery following 5 days of metabolic stress in presence (NAC) and absence (UT) of the ROS scavenger NAC (1 mM) (relative percentage of adherent cells compared to time 0 is shown). […] Western blot analysis of p62 levels in Bcl-2 expressing beclin1^+/+, beclin1^+/−, atg5^+/+ and atg5^−/− iBMK cell lines following 0 or 7 days of metabolic stress followed by 1 day recovery without and with NAC.” for “comparison.”, “determined. […]” for “determined.”

In the next test the test system is p62. Nature of the test: Western blot analysis of p62 levels after metabolic stress without and with NAC.
Source text: as §1, with “comparison. (B) Representative histogram from three independent experiments measuring the mean ROS levels in Bcl-2 expressing beclin1^+/+ and beclin1^+/− iBMK cells shown in (A). […] Representative time-lapse images of Bcl-2 expressing beclin1^+/+ and beclin1^+/− iBMK cells during recovery following 5 days of metabolic stress in presence (NAC) and absence (UT) of the ROS scavenger NAC (1 mM) (relative percentage of adherent cells compared to time 0 is shown). […] Western blot analysis of p62 levels in Bcl-2 expressing beclin1^+/+, beclin1^+/−, atg5^+/+ and atg5^−/− iBMK cell lines following 0 or 7 days of metabolic stress followed by 1 day recovery without and with NAC.” for “comparison.”, “determined. […]” for “determined.”

In test [3] the test system is Bcl-2 expressing beclin1^+/+ and beclin1^+/− iBMK cells. Nature of the test: MTT assays of sensitivity to ER stress and proteasome inhibition. The conditions noted are these: MTT assay; increasing concentrations; tunicamycin 3 days, epoxomycin 2 days; normal growth conditions. From the text: FIG. 3 illustrates the effects of autophagy defects in altering the stress response and sensitize cells to ER stress and proteasome inhibition. (A) Western blots showing levels of p62, ER chaperones, PDI and ubiquitin in Bcl-2 expressing beclin1^+/+, beclin1^+/−, atg5^+/+ and atg5^−/− iBMK cells following 5 or 7 days of metabolic stress, and 1 and 2 days of recovery. (B-D) Allelic loss of beclin1 sensitizes cells selectively to ER stress and proteasome inhibition. MTT assays showing sensitivity of Bcl-2 expressing beclin1^+/+ (Blue) and beclin1^+/− (Red) iBMK cells in response to increasing concentrations of (B) tunicamycin for 3 days, or (C) epoxomycin for 2 days, and (D) following 5 days of metabolic stress. Data are presented as mean±SD. (E) Autophagy deficiency causes mitochondrial damage. […]
Since autophagy defects indicated an elevated demand for protein folding, the sensitivity of beclin1 cells to pharmacological induction of ER stress was investigated. […] Degradation of unfolded proteins via the proteasome pathway and ameliorates ER stress and to investigate if autophagy deficiency also elevated the burden on the ubiquitin-proteasome system, the sensitivity to the proteasome inhibitor epoxomycin was assessed. […]

The values that follow come from patent publication US8187802B2, “Cell lines useful for assessing modulation of autophagy” (Rutgers, The State University of New Jersey, priority 2008, dated 2012).

“Also recorded” adds a separate entry of the source.

As for `CC(=O)N[C@@H](CS)C(=O)O` [NAC, N-acetyl cysteine], in test [1] (beclin1^+/+ iBMK cells, 40 passages), the “effect on maintenance of diploidy” value was “had no effect”. Besides, the progression to aneuploidy result in test [1] (beclin1^+/− cells, passages 18 and 39) was “limits progression to aneuploidy; also recorded: delayed this progression”. Besides, the “protective effect in beclin1^+/− cells relative to wild-type” value in test [2] is reported as “more profound”. Further, in test [2] (beclin1^+/+ and beclin1^+/− cells), the “survival during metabolic stress” value was “partially rescues the susceptibility to metabolic stress and recovery; also recorded: improved survival”. The “p62 accumulation during metabolic stress” value in the test with p62 (NAC 1 mM, beclin1^+/− iBMK cells) is on record as “decreased p62 accumulation”. In the test with p62 (beclin1^+/− and atg5^−/− cells, 7 days of metabolic stress followed by 1 day recovery, with NAC), the “p62 accumulation in autophagy-deficient cells” value is “suppresses p62 accumulation”.
Consider Tunicamycin, for which, in test [3], the “sensitivity of beclin1^+/− cells compared to wild-type cells” value is listed as “increased sensitivity”.
